Experimental data from patent US5858327A, “Hydrazino-type N2 S2 radionuclide chelating compounds” (Resolutions Pharmaceuticals, Inc., priority 1996, dated 1999).
Structures can show the parent of a compound that is named as a salt.

Assay: In vivo distribution of 99mTc-labelled chelators in rats
Set-up: species or system male Wistar rats
Conditions: for GI tract accumulation/localization (share of the dose) / dose remaining in the blood / accumulation in the kidney / localization in urine: male Wistar rats; for GI tract accumulation/localization (share of the dose): 99mTc-labelled chelator 200 μL (200 μCi) i.v. tail vein, organs counted after 120 min images; for dose remaining in the blood / accumulation in the kidney / localization in urine: 99mTc-labelled chelator i.v. tail vein; for dose remaining in the blood: after 120 min images, blood volume assumed 8% body weight; for accumulation in the kidney: examples 1 and 2 approximately equal
Protocol: Approximately 1 mg of each chelator was dissolved in 200 μL saline or 200 μL ethanol:water (1:1) in a tube. To the tube was added 100-300 μL sodium ^99m Tc-pertechnetate (5-15 mCi), 100 μL phosphate buffer (0.25M, pH 7.4), and 200 μL of a solution containing 50 μg stannous chloride dihydrate and 40 mg sodium tartrate dihydrate. The tube was capped tightly and placed in a boiling water bath for 10 minutes.
After cooling, the reaction mixture was loaded onto a C-18 solid-phase extraction cartridge (Sep-Pak) which had been activated with 5 mL methanol and 5 mL 1 mM HCl. The cartridge was washed with 5 mM HCl and the eluate was collected in a test tube. The cartridge was then dried by forcing air through it. The product was eluted with 2 mL ethanol:water (1:1) and collected in a separate tube. The cartridge was placed in another tube and the three tubes were assayed in a radionuclide dose calibrator (ionization chamber). The yield was calculated as the activity in the ethanol:water eluate divided by the total activity in the three tubes under the assumption that the desired product was relatively lipophilic. A less lipophilic chelator would elute partially in the acid wash and the apparent yield would be low.
Distribution within rats of selected chelators and a reference chelator were determined using established protocols. Briefly, male Wistar rats (Charles River, 200 g) were anaesthetized with somnitol (40 to 50 mg/kg) and 200 μL of the labelled chelator (ie. 200 μCi) was injected intravenously via the tail vein. Serial whole-body scintigrams were acquired for first 10 minutes, After further images were obtained at 60 and 120 minutes, the rat was killed with anaesthesia and samples of organs (blood, heart, lung, liver, spleen, kidney, muscle, GI tract) were weighed and counted in either a well-type gamma counter or in a gamma dose calibrator. Dose calculations were made based on the assumption that rats weighed 200 g and that the blood volume constituted 8% body weight. All results were corrected for the residual dose in the tail.

SMILES | GI tract excretion (in words) (in comparison with the N2S2 reference chelator, rats, i.v.) | GI tract accumulation/localization (share of the dose) | dose remaining in the blood | accumulation in the kidney | localization in urine | clearance from the blood (and other tissues), in words (rats, i.v.) | route of elimination (rats, i.v.)
O=C(CSC(=O)c1ccccc1)NNC(=O)NNC(=O)CSC(=O)c1ccccc1 [Example 1, N,N'-bis(S-benzoylmercaptoacetyl)-carbohydrazide] | remarkably low | about 9% | about 14% | 7-14% |  |  | 
O=C(CNC(=O)CSC(=O)c1ccccc1)CNC(=O)CSC(=O)c1ccccc1 [Example 3, N,N'-bis-(S-benzoylmercaptoacetyl)-1,3-diaminoacetone] |  | 50% | 3% |  | 25% | fastest clearance from the blood and other tissues | mainly eliminated through the liver and GI tract
N=C(NNC(=O)CSC(=O)c1ccccc1)NNC(=O)CSC(=O)c1ccccc1 [Example 2, N,N'-bis-(S-benzoylmercaptoacetyl)-1,3-diaminoguanidine hydrochloride] |  | 30% | about 10% | 7-14% | 20% |  | 
